Measurements: patent US6900202B2, “Di-substituted imineheterocyclic compounds” (priority 2000, dated 2005)

Molecular target: T1, α4β2 subtype of nicotinic acetylcholine receptors (Rattus norvegicus, UniProt P09483+P12390)
T1 construct: examined using rat brain membrane obtained from whole homogenized brain; from tissue; host or cells: whole brain membranes of Fischer-344 male rats
Assay: Binding assay at α4β2 subtype of nicotinic acetylcholine receptors ([3H]-cytisine, rat brain membrane)
Excerpt: The methods for evaluating the binding capabilities of the compounds against nicotinic acetylcholine receptors are different by subtypes of receptors. The binding capabilities of the compounds at α4β2 nicotinic acetylcholine receptors are examined using rat brain membrane obtained from whole homogenized brain, and determining the inhibiting rate of the compounds against [^3H]-cytisine binding to said brain membrane. Furthermore, the binding capabilities of the compounds at α1β1γδ nicotinic acetylcholine receptors are examined using homogenized rat muscle, and determining the inhibiting rate of the compounds against [^3H]-α-bungarotoxin binding to said muscle membrane.
Binding Assays at α4β2 Subtype of Nicotinic Acetylcholine Receptors
The affinity of the compounds of the present invention to α4β2 subunit of nicotinic acetylcholine receptors was performed by the following method, which was modified method described by Pabreza L. A., Dhawan S. & Kellar K. J., Mol. Pharm., 39, 9-12 (1990), and by Anderson D. J. & Arneric S. P., Eur. J. Pharm., 253, 261-267 (1994).
(1) Preparation of Rat Brain Membrane Containing α4β2 subtype of Nicotinic Acetylcholine Receptors
Fischer-344 strain male rats (body weight: 200-240 g; 9 weeks old) obtained from Charles River Japan were used. Rats were housed in the breeding cage controlled of the room temperature at 23±1° C., and the humidity of 55±5% for 1 to 4 weeks. Rats (3 to 4 rats per a cage) were housed with lights on for 12 hours daily (from 7:00 to 19:00), and allowed free access to food and water.
Preparation of rat brain membrane containing α4β2 subtype of nicotinic acetylcholine receptors was performed as follow. That is, rat brains were isolated just after sacrificed by decapitation, washed with ice-cooled saline solution and then frozen at −80° C. with liquid nitrogen and stored till using. After thawing the frozen brain, the brain was homogenized in 10 volumes of buffer solution (50 mM of Tris-HCl, 120 mM of NaCl, 5 mM of KCl, 1 mM of MgCl2, 2mM of CaCl2; pH 7.4; 4° C.) using homogenizer (HG30, Hitachi Kohki Ltd.) for 30 seconds, and the homogenate were centrifuged under 1,000×G for 10 minutes at 4° C. The resulting supernatant was separated and the pellet was homogenized again with half volume of aforementioned prior buffer solution and centrifuged under the same conditions. Combined supernatant was further centrifuged under 40,000×G for 20 minutes at 4° C. The pellet was suspended in buffer solution and used for binding assays at receptors.
(2) Experiments of α4β2 Subtype of Nicotinic Acetylcholine Receptors Binding
Suspensions of membrane pellets containing 400-600 μg of protein were added to test tubes containing test compounds and [^3H]-cytisine (2 nM) in a final volume of 200 μl and incubated for 75 minutes in ice-cooled bath. The samples were isolated by vacuum filtration onto Whatman GF/B filters, which were prerinsed with 0.5% polyethylenimine just prior to sample filtration, using Brandel multi manifold cell harvester. The filters were rapidly washed with buffer solution (3×1 ml). The filters were counted in 3 ml of clearsol I (Nacalai Tesque Inc.).
The analyses of the experimental results were conducted by using the Accufit Competition Program (Beckman Ltd.).

T1 sequence (P09483 31-630): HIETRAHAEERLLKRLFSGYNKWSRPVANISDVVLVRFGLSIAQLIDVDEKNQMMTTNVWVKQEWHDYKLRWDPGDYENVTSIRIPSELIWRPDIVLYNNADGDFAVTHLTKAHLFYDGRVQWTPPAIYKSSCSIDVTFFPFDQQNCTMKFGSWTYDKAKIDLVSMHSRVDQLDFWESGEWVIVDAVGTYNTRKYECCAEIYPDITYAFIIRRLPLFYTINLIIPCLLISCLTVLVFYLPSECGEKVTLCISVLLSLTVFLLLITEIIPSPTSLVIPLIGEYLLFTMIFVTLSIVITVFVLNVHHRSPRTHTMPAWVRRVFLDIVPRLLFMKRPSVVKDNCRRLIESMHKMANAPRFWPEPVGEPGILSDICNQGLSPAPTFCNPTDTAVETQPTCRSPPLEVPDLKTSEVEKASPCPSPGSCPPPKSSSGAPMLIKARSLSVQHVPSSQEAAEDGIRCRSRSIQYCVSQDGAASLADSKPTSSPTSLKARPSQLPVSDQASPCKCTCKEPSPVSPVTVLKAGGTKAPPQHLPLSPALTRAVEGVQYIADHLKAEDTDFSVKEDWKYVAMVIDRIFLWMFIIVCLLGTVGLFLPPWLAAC
T1 sequence (P12390 25-500): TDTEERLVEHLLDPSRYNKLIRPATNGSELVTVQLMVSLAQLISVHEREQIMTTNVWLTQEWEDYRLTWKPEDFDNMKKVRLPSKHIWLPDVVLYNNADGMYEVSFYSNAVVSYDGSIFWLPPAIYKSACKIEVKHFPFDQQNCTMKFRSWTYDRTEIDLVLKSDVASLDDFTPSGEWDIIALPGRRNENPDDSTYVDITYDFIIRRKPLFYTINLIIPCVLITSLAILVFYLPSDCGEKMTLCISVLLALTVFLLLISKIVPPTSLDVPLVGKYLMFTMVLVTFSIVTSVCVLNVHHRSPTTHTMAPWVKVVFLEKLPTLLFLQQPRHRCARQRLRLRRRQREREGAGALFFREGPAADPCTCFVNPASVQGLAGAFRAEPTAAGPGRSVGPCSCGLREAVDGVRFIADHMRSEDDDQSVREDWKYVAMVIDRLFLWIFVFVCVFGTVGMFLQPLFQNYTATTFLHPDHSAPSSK

Compound	Ki [µM]
Clc1ccc(C/N=C2\SCCN2Cc2ccc(Cl)nc2)cn1 [Compound 1, 3-(6-chloro-3-pyridyl)methyl-2-[(6-chloro-3-pyridyl)methyl]iminothiazolidine]	0.016
Cn1ccn(Cc2ccc(Cl)nc2)c1=N [Compound 13, 1-(6-chloro-3-pyridyl)methyl-2-imino-3-methyl-2,3-dihydroimidazole]	0.015
Clc1ccc(C/N=C2\OCCCN2Cc2ccc(Cl)nc2)cn1 [Compound 2, 3-(6-chloro-3-pyridyl)methyl-2-[(6-chloro-3-pyridyl)-methyl]imino-3,4,5,6-tetrahydro-2H-1,3-oxazine]	0.022
Clc1ccc(C/N=c2\sccn2Cc2ccc(Cl)nc2)cn1 [Compound 8, 3-(6-chloro-3-pyridyl)methyl-2-[(6-chloro-3-pyridyl)methyl]imino-2,3-dihydrothiazole]	0.042
